Values quoted from earlier work as cited in US12110270B2, “Systems and methods for generation of hyperpolarized materials” (NVISION IMAGING TECHNOLOGIES GMBH, priority 2021, dated 2024).
Read-outs that look alike come from different tables or passages of the source.

In the case of `CC(=O)O` [acetic acid], the “maximal mole fraction in n-heptane” value (14.8° C.) is given as 0.935 and the “maximal mole fraction in n-heptane” value (−29.2° C.) is given as 0.02.
